Data on four compounds can be found in patent US9751885B2, “Cyclopropanamine compound and use thereof” (Takeda Pharmaceutical Company Limited, priority 2012, dated 2017).

Data set [1] in a line: Evaluation of hippocampal distribution in mouse. The class given is in vivo. The note with it: male ICR mice, 10 mg/kg oral; for concentration at 0.5 h / Kp at 0.5 h: 0.5 hr after administration. The procedure: Evaluation of Hippocampal Distribution in Mouse
(§1) Male ICR mice (hereinafter mice) were acclimated for at least one week in a rearing facility. The mice were raised in a rearing room with controlled temperature and humidity under a 12:12 hour light-dark cycle, and allowed free ingestion of feed and water.
The compounds were suspended in 0.5% methylcellulose/0.02% citric acid/distilled water and orally administered. All compounds were administered to the mice at a dose of 10 mg/kg (body weight).
Blood samples were collected at 0.5 hr, or 1 hr, or 1.5 hr from compound administration, and the hippocampus was isolated simultaneously. The plasma concentration and hippocampus concentration of each test compound were measured by the LC/MS/MS method, the ratio (hippocampus/plasma concentration ratio) was calculated, and distribution into hippocampus was evaluated.

The subject of data set [2] is white blood cell number, red blood cell number, platelet number. In words: Evaluation of blood cell number in mouse. The class given is in vivo. The following applies: oral, Day 2 after administration. As to the method: Evaluation of Blood Cell Number in Mouse
as §1
The compounds were suspended in 0.5% methylcellulose/0.02% citric acid/distilled water and orally administered. All compounds were administered to the mice at a dose of 1 mg/kg, 10 mg/kg, 50 mg/kg or 100 mg/kg (body weight). On Day 2 after the administration of the compound, the whole blood was collected.
Using Sysmex XT-1800i (Sysmex Corporation), the white blood cell number, red blood cell number, and platelet number in the collected whole blood per unit volume were measured. The influence of each compound on each blood cell number was determined by comparing the number with the mean of each blood cell number of the mouse without administration of the compound (control group), and the numerical value of each blood cell number of a mouse with the administration of the compound is shown in percentage. percentage (%) of blood cell number of compound administration group as compared to control group=(mean blood cell number of compound administration group mean blood cell number of compound non-administration group)×100

Where [3] appears, read: hippocampus, read-out: hippocampus concentration (mean).
[4] abbreviates: hippocampus/plasma, read-out: hippocampus/plasma concentration ratio (mean).
The mark [5] stands for this setting: plasma, read-out: plasma concentration (mean).

Structures can show the parent of a compound that is named as a salt. Where two headings read alike, the source gives them in different places.

For the compound `O=C(NC1CCOCC1)c1cccc([C@@H]2C[C@H]2NCC2CC2)c1` (relative stereo) [Example 100, 3-(trans-2-((cyclopropylmethyl)amino)cyclopropyl)-N-(tetrahydro-2H-pyran-4-yl)benzamide hydrochloride], the concentration at 0.5 h in data set [1] (setting [3]) turned out to be 207 ng/g. The Kp at 0.5 h in data set [1] (setting [4]) worked out at 0.24. For the same compound, the concentration at 0.5 h in data set [1] (setting [5]) was 889 ng/mL. Moreover, in data set [2] (10 mg/kg), the “platelet number, percentage of compound administration group compared to control group, mean” value (“platelet number, percentage” for short) turned out to be 98.1%; the “red blood cell number, percentage of compound administration group compared to control group, mean” value (from here on “red blood cell number, percentage”) is on record as 92.9%; the “white blood cell number, percentage of compound administration group compared to control group, mean” value (“white blood cell number, percentage” below) came out at 99.4%. In addition, in data set [2] (100 mg/kg), the “platelet number, percentage” value is on record as 91.0%; the “red blood cell number, percentage” value was 98.8%; the “white blood cell number, percentage” value was found to be 104.8%.

For `O=C(NC1CCC(F)(F)CC1)c1cccc([C@@H]2C[C@H]2NCC2CC2)c1` (relative stereo) [Example 102, 3-(trans-2-((cyclopropylmethyl)amino)cyclopropyl)-N-(4,4-difluorocyclohexyl)benzamide hydrochloride], the concentration at 1 h in data set [1] (hippocampus, 1 hr after administration, read-out: hippocampus concentration (mean)) is 482 ng/g. In addition, the Kp at 1 h in data set [1] (hippocampus/plasma, 1 hr after administration, read-out: hippocampus/plasma concentration ratio (mean)) came to 1.84. Moreover, the concentration at 1 h in data set [1] (plasma, 1 hr after administration, read-out: plasma concentration (mean)) stood at 268 ng/mL. Also, in data set [2] (10 mg/kg), the “platelet number, percentage” value was 97.7%; the “red blood cell number, percentage” value is 99.5%; the “white blood cell number, percentage” value turned out to be 107.0%. Also, in data set [2] (100 mg/kg), the “platelet number, percentage” value is 94.7%; the “red blood cell number, percentage” value came to 104.9%; the “white blood cell number, percentage” value came out at 116.8%.

With `Cc1cc(NC(=O)c2cccc([C@@H]3C[C@H]3NCC3CC3)c2)n(C)n1` (relative stereo) [Example 107, 3-(trans-2-((cyclopropylmethyl)amino)cyclopropyl)-N-(1,3-dimethyl-1H-pyrazol-5-yl)benzamide dihydrochloride], the concentration at 0.5 h in data set [1] (setting [3]) turned out to be 242 ng/g. Also, in data set [1] (setting [4]), the Kp at 0.5 h was 0.09. Besides, the concentration at 0.5 h in data set [1] (setting [5]) was determined as 2560 ng/mL. In addition, in data set [2] (10 mg/kg), the “platelet number, percentage” value was 95.4%; the “red blood cell number, percentage” value stood at 98.4%; the “white blood cell number, percentage” value came to 86.6%. In data set [2] (100 mg/kg), the “platelet number, percentage” value worked out at 91.1%; the “red blood cell number, percentage” value came to 102.2%; the “white blood cell number, percentage” value stood at 132.7%.

On to `O=C(NC1CCOCC1)c1cc([C@@H]2C[C@H]2NCC2CC2)ccc1F` (relative stereo) [Example 111, 5-(trans-2-((cyclopropylmethyl)amino)cyclopropyl)-2-fluoro-N-(tetrahydro-2H-pyran-4-yl)benzamide hydrochloride], for which the concentration at 0.5 h in data set [1] (setting [3]) is 1300 ng/g; in data set [1] (setting [5]), 823 ng/mL. The Kp at 0.5 h in data set [1] (setting [4]) stood at 1.59. The results for the “platelet number, percentage” value in data set [2] (10 mg/kg) and in data set [2] (100 mg/kg) were 101.2% and 98.4%, respectively. The “red blood cell number, percentage” value is 98.7% in data set [2] (10 mg/kg) and 99.1% in data set [2] (100 mg/kg). The “white blood cell number, percentage” value in data set [2] (10 mg/kg) is recorded as 136.9%; in data set [2] (100 mg/kg), 97.9%.
